Assay results taken from patent publication US20110039277A1, “Methods of Labeling Proteins” (priority 2008, published 2011).
Entries after “also recorded” stand apart in the source; their conditions may differ.

Columns and labels:
[1] = system: mitochondrial proteins containing oxidized thiols; experiment: Thiol-sepharose affinity purification of oxidized mitochondrial proteins from brain regions of rotenone-treated rats; assay type: in vivo, Lewis rats; details: rotenone animals vs control
Excerpt: Preparation of affinity resin. Activated thiol-sepharose resin 4B (Sigma, St. Louis, Mo., USA) was used in previous studies to purify thiol-containing proteins (Egorov, T. A.; Svenson, A.; Ryden, L.; Carlsson, J. A rapid and specific method for isolation of thiol-containing peptides from large proteins by thiol-disulfide exchange on a solid support. Proc Natl Acad Sci USA 72:3029-3033; 1975); the resin extent of binding was 1 micromol of thiols per mL of medium. The resin rehydrated in milliQ-grade distilled water, 30 minutes, gently shaking at 4° C. […]
In the first technique (FIG. 20), a starting sample (e.g., purified mitochondria from the ventral midbrain of control and rotenone-treated rats) is homogenized and then free thiols are alkylated. […] At this point, the sample can be run over a thiol affinity column and the eluate can be analyzed by SDS-PAGE and Coomassie staining. In an alternative strategy, after the reduction the sample can be reacted with ICAT (isotope coded affinity tag) reagents for mass spectrometry (Gygi, S P, Rist, B, Gerber, S A, Turecek, F, Gelb, M H and Aebersold, R, (1999) Quantitative analysis of complex protein mixtures using isotope-coded affinity tags. Nat Biotechnol 17: 994-9).

[2] = system: transferrin; experiment: Reducing and non-reducing Western blots of transferrin in substantia nigra; assay type: in vivo; details: chronic rotenone treatment vs control animal
Excerpt: In the lower panel, left and right, a loading control (39 kDa subunit of mitochondrial complex I) ensures that the initial amount of protein was the equal for all the lanes.

[3] = system: human neuroblastoma cells; experiment: Fluorescent labeling of protein carbonyls (FITC-hydrazide) in rotenone-treated cells; assay type: cell-based; details: 50 nM rotenone, 24 hours, vs vehicle-treated cells
Description: Cells are fixed in cold methanol for 10 minutes at −20° C. Paraformaldehyde and other […] group-containing (and therefore carbonyl group-containing) fixatives should be avoided. The method can be successfully applied to tissues as well.
Carbonyls are labeled with fluorescein-conjugated hydrazide (FITC-NN, FIG. 1, Molecular Probes, cat #F-121). F121 is prepared fresh in dimethyl-formamide. As the reaction between the hydrazine and the carbonyls occurs in acidic environment, the labeling is carried out in 50 mM sodium acetate (pH 4). FITC-NN is used 2 microM final; incubation is carried on 2 hours at room temperature.
Samples are washed in phosphate buffer solution (PBS) for 5 minutes; this step is repeated three times.
From this step onward, a classical immunohistochemistry staining can be performed to detect proteins of interest.
Images are acquired with a laser scanning confocal microscope.

[4] = system: dopaminergic neurons of the substantia nigra; experiment: Histological labeling of oxidized thiols in substantia nigra of rotenone-treated rats; assay type: in vivo, Lewis rats; details: chronic rotenone treatment vs control animal
Description: (§1) Histological labeling of oxidized thiols. Brains were fixed in 4% paraformaldehyde and processed as described (Betarbet, R.; Sherer, T. B.; MacKenzie, G.; Garcia-Osuna, M.; Panov, A. V.; Greenamyre, J. T. Chronic systemic pesticide exposure reproduces features of Parkinson's disease. Nat Neurosci 3:1301-1306; 2000). After cutting with a freezing microtome, sections were treated immediately in alkylating buffer (100 mM IAM, 100 mM NEM, TrisHCl, pH 6.8) to block free thiols. For cell culture studies, cells were seeded and cultured on coverslips, then fixed in 4% paraformaldehyde, 0.02% Triton-X100 supplemented with 100 mM IAM, 100 mM NEM to block free thiols. After three washes in PBS—10 minutes at room temperature—disulfides were reduced with 25 mM TCEP in PBS for 20 minutes. TCEP was omitted in the control reaction. The samples were labeled with CPM (0.5 mM final) in TrisHCl (0.1 M, pH 6.8) and then washed three times, for 10 minutes, in PBS.
Following the thiol labeling, immunohistochemistry was performed according to standard procedures. Briefly, after a blocking step in 10% serum, samples were incubated over-night with primary antibody (tyrosine hydroxylase, Mab318, Chemicon, Temecula, Calif., 1:2000; OX42, MCA 275G AbD Serotec, Oxford, UK, 1:150; GFAP, Mab 3402, Chemicon, Temecula, Calif., 1:1000). Fluorescently labeled secondary antibodies were used for detection. […]

[5] = system: Hsp60; experiment: FRET by acceptor photobleaching between FITC-NN carbonyl label and Cy3 anti-Hsp60 antibody in cells; assay type: cell-based; details: rotenone-treated cells
Excerpt: Anti-Hsp60 (Stressgen, used at 1:500) was conjugated with Cy3. The procedure can be carried out in a 96-well plate, which can be analyzed with a micro-plate spectrofluorometer. FRET between FITC-NN and a Cy3-labeled specific antibody can be studied to determine if the two fluorophores are in close proximity (<50 Å) and therefore if the protein of interest is oxidized. […] First, the acceptor fluorophore is photobleached over four cycles. In FIG. 3, Cy3 was the acceptor fluorophore and the protein of interest was Hsp60, where Cy3 conjugated with anti-Hsp60 antibody. Second, the emission of the acceptor fluorophore and of the donor fluorophore are determined and compared. If a significant increase in the donor emission is observed after photobleaching the acceptor fluorophore, then the two fluorophores are determined to be in close proximity. […] Therefore, the two fluorophores are in close proximity and indicate that the protein of interest, here Hsp60, is oxidized.

[6] = system: dopaminergic neurons; experiment: Tyrosine hydroxylase, transferrin and oxidized thiol imaging in dopaminergic neurons treated with rotenone; assay type: cell-based; details: cells treated with rotenone vs control
[7] = system: substantia nigra; experiment: Imaging of carbonyls in substantia nigra of rotenone-treated animals; assay type: in vivo; details: rotenone-treated animal vs control animal
Excerpt: To detect carbonyls in fixed slices and perform microscopy studies, fluorescein-conjugated hydrazine is used (FITC-hydrazine, please see FIG. 19). As a positive control, carbonyl formation is induced by metal-catalyzed oxidation, treating the samples with iron (Fe^3+) and ascorbate (Amici, A, Levine, R L, Tsai, L and Stadtman, E R, (1989) Conversion of amino acid residues in proteins and amino acid homopolymers to carbonyl derivatives by metal-catalyzed oxidation reactions. J Biol Chem 264: 3341-6 and Halliwell, B and Gutteridge, J M, (1990) Role of free radicals and catalytic metal ions in human disease: an overview. Methods Enzymol 186: 1-85). In the confocal studies, a negative control can be performed preincubating the fixed slices with an excess of DNPH.
Protein carbonyls. Another oxidative modification of proteins is carbonyl formation. Typically, carbonyls are assayed by reacting protein homogenates with hydrazine compounds (e.g., dinitrophenylhydrazine; DNPH) and then measuring the reaction product spectrophotometrically, or with antibody-based techniques. We have used a fluorescent hydrazine compound to directly label carbonyls (FIG. 19). As with thiol labeling, this technique is amenable to FRET so that candidate proteins can be examined for carbonyl content and changes therein in pesticide intoxication.

[8] = system: SH-SY5Y human neuroblastoma cells; experiment: Histochemical detection of oxidized thiols (disulfides) with CPM in cells; assay type: cell-based; details: tBH 1 mM vs vehicle control
Description: as §1
Images were acquired using a laser scanning confocal microscope. The microscope was equipped with a spectral detector technology that provides precise wavelength separation of the emitted light, preventing light leakage between different fluorophores. The following detection ranges were used for each fluorophore: 450 nm-480 nm for UV probes; 515 nm-535 nm for Alexa488; 560 nm-574 nm for Cy3. […]

[9] = system: thioredoxin-1 (trx-1); experiment: FRET between thiol-bound CPM and Alexa488-labeled trx-1 antibody in cells; assay type: cell-based; details: tBH-treated cells vs baseline
Description: as §1, with “The samples were labeled with CPM (0.5 mM final) in TrisHCl (0.1 M, pH 6.8) and then washed three times, for 10 minutes, in PBS.” left out
Direct FRET was detected by reading the acceptor emission (FITC derivative conjugated antibody) at 520 nm while exciting the donor (CPM) with the 405 nm laser. Alternatively, FRET was detected by acquiring the donor (CPM) emission before and after photobleaching of the acceptor fluorophore (Alexa488) with the 488 nm laser. FRET efficiency (Feff) was calculated by the confocal software (version 1.5) according to the equation Feff=1−(empre/empost), where Feff=FRET efficiency, empre=donor emission prebleaching, empost=donor emission post bleaching.

[10] = system: thioredoxin-1 (trx-1); experiment: Redox western blot (10 kDa PEG-maleimide) of thioredoxin-1 in cells; assay type: cell-based; details: low millimolar concentrations of tBH
Description: Western blot analysis to detect proteins with oxidized cysteines. Cells were lysed in alkylating buffer (0.1M TrisHCl pH 6.8, 1% SDS, 100 mM IAM, 100 mM NEM). The lysate was sonicated on ice to disrupt high molecular weight DNA and incubated 30 minutes at room temperature to allow total alkylation of free Cys residues. 200 μg of alkylated proteins were precipitated with 5 volumes of ice-cold acetone and resuspended in 50 microliters of Tris-SDS buffer (0.1M TrisHCl, pH 7.4, 1% SDS). Disulfides were reduced by adding TCEP 5 mM final concentration. The samples were incubated 20 minutes at room temperature to allow complete reduction of disulfides to thiols. TCEP was removed with Micro Bio-spin Chromatography columns 6 (BIORAD, Hercules, Calif.). After the filtration step, the samples were in about 50 μL of 10 mM TrisHCl pH 7.4 (volume was adjusted to 50 μL as necessary). SDS was added to a 1% final concentration.
To label the previously oxidized (and now reduced) cysteines, polyethylene-glycol-conjugated maleimide (molecular weight 10 kDa, SunBio, Orinda, Calif.) was added to 50 micrograms of proteins, 1 mM final concentration, from a 10 mM stock in Tris-SDS buffer. After 1 hour incubation at room temperature, samples were precipitated with ice cold acetone and resuspended in 50 μL of SDS electrophoresis loading buffer. 10 μL (about 10 μg) were used for western blot analysis. […]

SMILES | oxidized mitochondrial proteins eluted from thiol affinity chromatography, striatum ([1]; striata) | oxidized mitochondrial proteins eluted from thiol affinity chromatography, substantia nigra ([1]; substantia nigra (ventral midbrain)) | oxidized transferrin form in non-reducing gel [2] | carbonyls (green fluorescence) [3] | oxidized thiols in nigrostriatal dopaminergic (TH-positive) neurons [4] | FITC (donor) emission after photobleaching of Cy3 acceptor; indicates Hsp60 is oxidized [5] | transferrin (trf) level, colocalized with oxidized thiols by FRET [6] | carbonyls in substantia nigra [7] | oxidized thiols (disulfides) labeling [8] | FRET between CPM and Alexa488 trx-1 antibody (thiol oxidation of Trx-1) [9] | thiol oxidation (disulfide formation) in trx-1 by redox western blot [10]
C=C(C)[C@H]1Cc2c(ccc3c2O[C@@H]2COc4cc(OC)c(OC)cc4[C@@H]2C3=O)O1 [rotenone] | No major differences | marked increase in thiol oxidation; also recorded: dramatic increase in oxidized proteins; also recorded: striking increase of oxidized proteins | higher molecular weight form | detectable increase; also recorded: large increase in carbonyls | remarkable and very selective increase in oxidized thiols; also recorded: marked increase in oxidized thiols | significant increase in FITC emission | accumulation of transferrin | marked increase in carbonyls |  |  | 
CC(C)(C)OO [tBH, tert-butyl-hydroperoxide] |  |  |  |  |  |  |  |  | remarkable increase in disulfides; also recorded: dramatic increase of thiol labeling | clear increase in the signal; also recorded: marked increase in direct FRET | quickly induced the formation of disulfides in trx-1; also recorded: induced thiol oxidation in thioredoxin-1
